Measured values: US11896571B2, “Methods for increasing oral osteogenesis using lipoxin A4 (LXA4) and its analogs” (Forsyth Dental Infirmary for Children, priority 2013, dated 2024)

How the values were obtained:
[1] = test system: acute inflammation (PMN infiltration, pro-inflammatory cytokines); settings: mouse model of acute inflammation, cited from earlier work
[2] = test system: periodontal disease and bone loss (intrabony defects around second and fourth premolars); assay: Minipig periodontal disease model: periodontal flap surgery with a single application, μCT and conventional radiographic imaging; type: in vivo, minipigs (Hanford)
Method: The Institutional Animal Care Committee at the Forsyth Institute and PARF, Inc reviewed and approved the animal protocol prior any study activities. Two adult (18-24 months old) female minipigs (Hanford) were purchased and acclimatized for at least 7 days before any procedures. All surgical and follow up procedures and housing throughout the study duration (about 6 months including disease induction period) were performed at an animal and surgical facility at PARF, Inc.
Anesthesia and surgical procedures were conducted as described in Hasturk H, Kantarci A, Ghattas M, Schmidt M, Giordano R, Ashman A, Diekwisch T, Van Dyke T E. The Use of Light/Chemically-Hardened Poly-Methyl-Methacrylate, Poly-Hydroxyl-Ethyl-Methacrylate and Calcium Hydroxide Graft Material in Combination with Polyanhydride around Implants in Minipigs: Part I: Immediate Stability and Function. J Periodontol. 2011 September; 82(9):1339-1352, which is incorporated by reference in its entirety herein. Briefly, minipigs were premedicated with Telazol (4-6 mg/kg IM) and xylazine (2.2 mg/kg IM) and were maintained by 3-4% isoflurane for induction and 0.5-2% isoflurane for maintenance. Each pig was anesthetized for approximately two hours during ligature placement and intraoral photographs. Endotracheal intubation was performed whenever the pig was fully anesthetized. Periodontal disease and bone loss were induced by creating intrabony defects using burs and ligatures in all four quadrants around the same teeth (second and fourth premolars) (FIG. 2A). After ligature placement, animals were fed with soft diet to stimulate plaque accumulation around ligatures for 6 weeks.
Oral examination, including digital photographs, were repeated at 2 and 4 weeks and ligatures were removed at 6 weeks. The sites were left untreated for about 38 days to stabilize the periodontal disease and bone loss obtained and to eliminate the self healing aspect of the bone defects. Accordingly, the defects were chronically created for the baseline treatments (FIG. 2B).
At Day 0 (baseline), the minipigs were anesthetized as described above. […]

[3] = test system: periodontitis and inflammation-induced bone destruction; settings: rabbit periodontitis; cited from earlier work

Molecule	levels of pro-inflammatory cytokines ([1]; in vivo)	polymorphonuclear leukocyte (PMN) infiltration ([1]; in vivo)	anti-inflammatory properties [1]	number of applications after which oral osteogenesis effects were observed ([2]; applied to debrided chronic periodontal lesion at periodontal flap surgery)	bone regeneration by conventional radiographic imaging of teeth ([2]; surgery plus 9,12 benzo LXA4 vs surgery alone (FIG. 3))	bone osteogenesis by micro-computed tomography (μCT) imaging of teeth ([2]; surgery plus 9,12 benzo LXA4 vs surgery alone, 0.1-1 μM, light gel, applied at flap surgery, bone covering root notches (FIG. 3))	bone loss [3]	inflammation [3]	tissue regeneration [3]
9,12 benzo-LXA4 [9,12, benzo LXA4]	significantly reducing	significantly reducing	potent anti-inflammatory properties	observed after only a single application	regenerated bone to essentially pre-disease levels	induction of bone osteogenesis following LXA4 treatment was observed			
CC[C@@H](O)/C=C/C=C\C[C@@H](O)/C=C/C=C/C=C\[C@@H](O)CCCC(=O)O [resolvin E1 (RVE1), resolvin E1]							protects from bone loss	reduces inflammation	stimulates tissue regeneration
